Test results: US20250057849A1, “ANTIVIRAL COMPOSITION COMPRISING NUCLEOSIDE ANALOGUES DERIVED FROM NUCLEIC ACID AND PHARMACEUTICALLY ACCEPTABLE SALT THEREOF” (CJ CheilJedang Corporation, priority 2021, published 2025)
Where two headings read alike, the source gives them in different places.

How the values were obtained:
[1] = test system: PRRSV (NA type, VR-2332 strain); test: PRRSV infection inhibition in Marc-145 cells (immunofluorescence staining); assay type: cell-based, Porcine Reproductive and Respiratory Syndrome virus; conditions: for SI (selectivity index), PRRSV: CC50/IC50; for IC50: Porcine reproductive and respiratory syndrome virus, MARC145, 72 h, Marc-145 cells, 100 TCID50/ml PRRSV, three days after treatment, read-out: PRRSV infection inhibition concentration IC50
[2] = test system: PEDV (G1a type, SM98 strain); test: PEDV infection inhibition in Vero cells (PEDV detection kit on isolated RNA); assay type: cell-based, Porcine Epidemic Diarrhea virus; conditions: for SI (selectivity index), PEDV: CC50/IC50; for IC50: Porcine epidemic diarrhea virus, 48 h, Vero cells, 200 TCID50/ml PEDV, after 2 days, read-out: PEDV infection inhibition concentration IC50
Description: The next day, PEDV (G1a type, SM98 strain) of 200 TCID50/ml and inosine, xanthosine and guanosine in the dialdehyde and acyclic diol forms were treated to the cells simultaneously, and after 2 days, using commercialized Viral gene (DNA/RNA) extraction kit (iNtRON, 101410754), RNA was isolated. For the isolated RNA, using commercialized PEDV detection kit (Mediandiagnostics, NS-PED-31), the antiviral efficacy of the materials was verified.

PCV2 = PCV2 infection inhibition in PK15 cells (qPCR); assay type: cell-based, Porcine Circovirus Type 2; conditions: for SI (selectivity index), PCV2: CC50/IC50; for IC50: Porcine circovirus 2, PK-15, 96 h, PK15 cells, 200 TCID50/well PCV2, after 4 days, read-out: PCV2 infection inhibition concentration IC50
Description: For the isolated DNA, using PCV2-specific primers (F-[…] , R-[…] ) and realtime RT-qPCR experimental method (95° C., 30 seconds 1 cycle, 95° C., 20 seconds, 56° C., 60 seconds 40 cycles), the antiviral efficacy of the materials was verified.

PRV = test: microbe, parasite or virus in culture; assay type: cell-based, Porcine Rotavirus; conditions: for SI (selectivity index), PRV: CC50/IC50; for IC50: Rotavirus C, Vero, 72 h, read-out: PRV infection inhibition concentration IC50
[3] = test system: Swine Influenza virus (SIV); test: organism not typed; assay type: cell-based; conditions: for SI (selectivity index), SIV: CC50/IC50; for IC50: MDCK, 96 h, read-out: SIV infection inhibition concentration IC50
NDV = test: microbe, parasite or virus in culture; assay type: cell-based, Avian Newcastle Disease virus; conditions: for SI (selectivity index), NDV: CC50/IC50; for IC50: read-out: NDV infection inhibition concentration IC50
BRV = BRV infection inhibition in MDBK cells (RT-qPCR); assay type: cell-based, Bovine Rotavirus; conditions: for SI (selectivity index), BRV: CC50/IC50; for IC50: Rotavirus A, 96 h, MDBK cells, 200 TCID50/well BRV, after 4 days, read-out: BRV infection inhibition concentration IC50
Description: The next day, BRV of 200 TCID50/well and inosine, xanthosine and guanosine in the dialdehyde and acyclic diol forms were treated to the cells simultaneously, and after 4 days, using commercialized Viral gene (DNA/RNA) extraction kit (iNtRON, 101410754), RNA was isolated.
For the isolated RNA, using BRV-specific primers (F-[…] , R-[…] ) and realtime RT-qPCR experimental method (95° C., 10 minutes 1 cycle, 95° C., 15 seconds, 60° C., 15 seconds, 72° C., 20 seconds 40 cycles), the antiviral efficacy of the materials was confirmed.

CPV = CPV infection inhibition in MDCK cells (qPCR); assay type: cell-based, Canine Parvovirus; conditions: for SI (selectivity index), CPV: CC50/IC50; for IC50: 96 h, MDCK cells, 200 TCID50/well CPV, after 4 days, read-out: CPV infection inhibition concentration IC50 (Table 10)
Description: For the isolated DNA, using CPV-specific primers (F-[…] , R-[…] ) and realtime RT-qPCR experimental method (95° C., 5 minutes 1 cycle, 95° C., 10 seconds, 60° C., 30 seconds, 40 cycles), the antiviral efficacy of the materials was confirmed.

Vero cell line = conditions: monkey
in vitro = conditions: monkey
[4] = Cytotoxicity, PK15 cell test; conditions: pig, PK15 cells
[5] = Cytotoxicity, MDCK cell tests; conditions: dog, MDCK cells
MDCK cell line = test: Cytotoxicity, MDCK cell tests; conditions: read-out: CC50 (Table 10, CPV); cytotoxicity
[6] = Cytotoxicity, MDBK cell tests; conditions: bovine, MDBK cells
[7] = Cytotoxicity (WST-1 / DAPI staining), PRRSV test cells; conditions: monkey, Marc-145 cells (monkey kidney)
IBV = test: microbe, parasite or virus in culture; assay type: cell-based, Avian Infectious Bronchitis virus; conditions: for IC50: read-out: IBV infection inhibition concentration IC50; for SI (selectivity index), IBV: CC50/IC50
BVDV = BVDV infection inhibition in MDBK cells (RT-qPCR); assay type: cell-based, Bovine Viral Diarrhea virus
Description: The next day, BVDV of 200 TCID50/well and inosine, xanthosine and guanosine in the dialdehyde and acyclic diol forms were treated to the cells simultaneously, and after 4 days, using commercialized Viral gene (DNA/RNA) extraction kit (iNtRON, 101410754), RNA was isolated.
For the isolated RNA, using BVDV-specific primers (F-[…] , R-[…] ) and realtime RT-qPCR experimental method (94° C., 10 minutes 1 cycle, 94° C., 10 seconds, 53° C., 20 seconds, 72° C., 30 seconds 35 cycles), the antiviral efficacy of the materials was verified.

MDBK cell line = test: Cytotoxicity, MDBK cell tests; conditions: read-out: CC50 (Table 9, BRV); cytotoxicity
[8] = avian paramyxovirus 1, Vero, 72 h

Molecule	SI (selectivity index), PRRSV [1]	IC50 [1] [µM]	SI (selectivity index), PEDV [2]	IC50 [2] [µM]	SI (selectivity index), PCV2 (PCV2)	IC50 (PCV2) [µM]	SI (selectivity index), PRV (PRV)	IC50 (PRV) [µM]	SI (selectivity index), SIV [3]	IC50 [3] [µM]	SI (selectivity index), BRV (BRV)	IC50 (BRV) [µM]	SI (selectivity index), CPV (CPV)	IC50 (CPV; Canine parvovirus) [µM]	CC50 (Vero cell line) [µM]	CC50 (in vitro) [µM]	CC50 [4] [µM]	CC50 [5] [µM]	CC50 [6] [µM]	CC50 [7] [µM]	also measured
O=c1[nH]c(=O)c2ncn([C@@H](CO)OC(CO)CO)c2[nH]1 [Acyclic diol-xanthosine, acyclic diol form of xanthosine]	>20	400	>4.4	2300	>10.1	995	>2.9	3420	>1.5	6690	>6.4	1560	>4.6	2200	> 10000	> 10000	> 10000	> 10000	> 10000	> 8000	inhibition at 8000 µM (NDV; avian paramyxovirus 1, Vero, read-out: NDV infection inhibition efficacy): 39.4%; CC50 (MDCK cell line): > 10000 µM
Nc1nc2c(ncn2[C@@H](CO)OC(CO)CO)c(=O)[nH]1 [Acyclic diol-guanosine, acyclic diol form of guanosine]	>17.5	458	>5.6	1780	>4.3	2330	>2.9	3400	>2.1	4820	>5.7	1760			> 10000	> 10000	> 10000	> 10000	> 10000	> 8000	IC50 (IBV; Avian coronavirus, Vero, 96 h): 1780 µM; SI (selectivity index), IBV (IBV): >5.6; SI (selectivity index), NDV (NDV): >1.5; IC50 (NDV; [8]): 6710 µM; inhibition at 8000 µM (CPV; Canine parvovirus, MDCK, at 8000 μM, read-out: CPV infection inhibition efficacy): 18%; CPV virus titer reduction efficacy (CPV; at 8000 μM): ≥ 1 log10
O=c1[nH]cnc2c1ncn2[C@@H](CO)OC(CO)CO [Acyclic diol-inosine, acyclic diol form of inosine]	>17.6	454	>3.6	2770	>12.9	776	>3.5	2830	>1.6	6190	>5.2	1930	>4.6	2190	> 10000	> 10000	> 10000	> 10000	> 10000	> 8000	IC50 (IBV; Avian coronavirus, Vero, 96 h): 2660 µM; SI (selectivity index), IBV (IBV): >3.8; SI (selectivity index), NDV (NDV): >2.3; IC50 (NDV; [8]): 4440 µM; CC50 (MDCK cell line): > 10000 µM
dialdehyde form of inosine [Dialdehyde-inosine]																					IC50 (IBV; Vero cells, 200 TCID50/well IBV, after 4 days): 76.4 µM; IC50 (NDV; Vero cells, 200 TCID50/well NDV, after 3 days): 469 µM
O=C[C@@H](CO)O[C@H](C=O)n1cnc2c(=O)[nH]cnc21 [Dialdehyde-inosine, dialdehyde form of inosine]	>105.3	95	>22.3	448	>12.2	817	>103.5	96.6	>18.1	554	>93.8	107	>5.9	1690	> 10000	> 10000	> 10000	> 10000	> 10000	> 10000	IC50 (IBV; Avian coronavirus, Vero, 96 h): 76.4 µM; SI (selectivity index), IBV (IBV): >130; SI (selectivity index), NDV (NDV): >21.3; IC50 (NDV; [8]): 469 µM; IC50 (BVDV; Bovine viral diarrhea virus isolates and strains, 96 h, MDBK cells, 200 TCID50/well BVDV, after 4 days, read-out: BVDV infection inhibition concentration IC50): 110 µM; SI (selectivity index), BVDV (BVDV; CC50/IC50): >90.8; CC50 (MDCK cell line): > 10000 µM; CC50 (MDBK cell line): > 10000 µM
